Drawing on US11655239B2 (SHANGHAI INSTITUTE OF MATERIAL MEDICA, CHINESE ACADEMY OF …, priority 2019, dated 2023), this text covers IC50 and selectivity for kinases for 1 compound.

What all share (format): biochemical
In test [1] the target is DDR2 (Homo sapiens (Human), UniProt Q16832). Description: DDR2 enzyme activity test (ELISA). As to conditions: read-out: DDR2 IC50. As for the experimental part:
The optical rotation and the inhibitory activity against DDR2 enzyme of the compounds S11-A and S11-B obtained by the resolution in Example 12, and the chirally synthesized compounds S11-A′ and S11-B′ in Example 13 were tested (referred to the operation in Effect example 1), and the results are shown in Table 3 below:
Detection method: Enzyme-linked immunosorbent assay (ELISA)
Test receptor tyrosine kinase: DDR2
The kinase used in the experiment was obtained by our laboratory using the insect baculovirus expression system to express and purify the recombinant protein containing the protein kinase region; polyglutamic acid-tyrosine peptide segment [Poly(Glu, Tyr) 4:1] and sodium vanadate were purchased from Sigma; the anti-phosphorylated monoclonal antibody PY99 was purchased from Santa Cruz; horseradish peroxidase labeled goat anti-murine secondary antibody was purchased from Calbiochem; ATP and OPD were purchased from Sangon Biotech (Shanghai) Co., Ltd.; the remaining reagents were purchased from Sinopharm Chemical Reagent Co., Ltd. The reaction ELISA plate (#2592) was purchased from Corning. The full-wavelength microplate reader for experiment reading was a product of Molecular Device, model: SpectraMax 190; the experimental water was distilled water produced by Sinopharm Group.
The compound was centrifuged at 12,000 g for 5 min, and DMSO was added to prepare a 10^-2M stock solution, which was vortexed evenly, then sonicated for 10 min and stored at −40° C. for later use. During the test, the compound was diluted with DMSO from the stock solution to 100 times the test concentration (the DMSO concentration in the system was 1%).
(§1) 1) Enzyme reaction substrate Poly(Glu, Tyr) 4:1 was diluted to 20 μg/mL with potassium-free PBS (10 mM sodium phosphate buffer, 150 mM NaCl, pH 7.2-7.4), and the microtiter plate was coated with 125 μL/well and placed at 37° C. for 12-16 hours of reaction. The liquid in the well was discard. The plate was washed three times with T-PBS (potassium-free PBS containing 0.1% Tween-20, 200 μL/well), 5 minutes each time. The ELISA plate was dried in an oven at 37° C. for 1 to 2 hours.
(§2) 2) Reaction buffer (50 mM HEPES pH 7.4, 50 mM MgCl2, 0.5 mM MnCl2, 0.2 mM Na3VO4, 1 mM DTT) diluted ATP solution (49 μL) was added to each well, 1 μL of the compound to be tested was added to each well, and then 50 μL of DDR2 kinase domain recombinant protein diluted in the reaction buffer was added to start the reaction. Two control wells without ATP were set in each experiment. The plate placed on a shaker (100 rpm) at 37° C. for 1 hour of reaction. The liquid in the well was discarded and the plate was washed three times with T-PBS.
(§3) 3) Antibody PY99 dilution solution (the antibody was diluted 1:500 with T-PBS containing BSA 5 mg/mL) was added at 100 μL/well, and shaken on a shaker at 37° C. for 0.5 hour of reaction. The liquid in the well was discarded and the plate was washed three times with T-PBS.
(§4) 4) Horseradish peroxidase labeled goat anti-murine secondary antibody dilution solution (the antibody is diluted 1:2000 with T-PBS containing BSA 5 mg/ml) was added at 100 μL/well, and shaken on a shaker at 37° C. for 0.5 hour of reaction. The liquid in the well was discarded and the plate was washed three times with T-PBS.
(§5) 5) 2 mg/ml of OPD color developing solution [diluted with 0.1 M citric acid-sodium citrate buffer (pH=5.4) containing 0.03% H2O2] was added at 100 μL/well and reacted for 1 to 10 minutes at 25° C. in the dark.
(§6) 6) 2M H2SO4 was added at 50 μL/well to stop the reaction, and a tunable wavelength microplate reader VERSAmax was used for reading at a wavelength of 490 nm.
The IC50 value was obtained by four-parameter regression using the software that came with the microplate reader.

The target of test [2] is VEGFR-1 (Homo sapiens (Human), UniProt P17948). Description: Enzyme selectivity test (ELISA), VEGFR-1. As for the experimental part:
as §1, §2, §3, §4, §5, §6
(§7) The IC50 value was obtained by four-parameter regression using the software that came with the microplate reader. […]
Background: In an ELISA, binding on a coated surface is turned into a signal by an enzyme label.

Test [3] concerns the target PDGFR-α (Homo sapiens (Human), UniProt P16234). Description: Enzyme selectivity test (ELISA), PDGFR-α. As for the experimental part: as §1, §2, §3, §4, §5, §6, §7
Test [4] has as its target PDGFR-β (Homo sapiens (Human), UniProt P09619). Description: Enzyme selectivity test (ELISA), PDGFR-β. As for the experimental part: as §1, §2, §3, §4, §5, §6, §7
Test [5] deals with C-Kit (Homo sapiens (Human), UniProt P10721). Description: Enzyme selectivity test (ELISA), C-Kit. As for the experimental part: as §1, §2, §3, §4, §5, §6, §7
Test [6] has as its target Flt-3 (Homo sapiens (Human), UniProt P36888). Description: Enzyme selectivity test (ELISA), Flt-3. As for the experimental part:
as §1, §2, §3, §4, §5, §6, §7

Test [7] has as its target EGFR (Homo sapiens (Human), UniProt P00533). Description: Enzyme selectivity test (ELISA), EGFR. As to the method:
as §1, §2, §3, §4, §5, §6, §7

The target in test [8] is ErbB2 (Homo sapiens (Human), UniProt P04626). Description: Enzyme selectivity test (ELISA), ErbB2. As for the experimental part:
as §1, §2, §3, §4, §5, §6, §7

The target of test [9] is ErbB4 (Homo sapiens (Human), UniProt Q15303). Description: Enzyme selectivity test (ELISA), ErbB4. As for the experimental part: as §1, §2, §3, §4, §5, §6, §7
Test [10] addresses Src (Homo sapiens (Human), UniProt P12931). Description: Enzyme selectivity test (ELISA), Src. As for the experimental part: as §1, §2, §3, §4, §5, §6, §7
Test [11] addresses Abl (Homo sapiens (Human), UniProt P00519). Description: Enzyme selectivity test (ELISA), Abl. As to the method: as §1, §2, §3, §4, §5, §6, §7
For test [12], the target named is EPH-A2 (Homo sapiens (Human), UniProt P29317). Description: Enzyme selectivity test (ELISA), EPH-A2. As to the method:
as §1, §2, §3, §4, §5, §6, §7

Test [13] has as its target IGF-1R (Homo sapiens (Human), UniProt P08069). Description: Enzyme selectivity test (ELISA), IGF-1R. As for the experimental part:
as §1, §2, §3, §4, §5, §6, §7

Test [14] addresses AXL (Homo sapiens (Human), UniProt P30530). Description: Enzyme selectivity test (ELISA), AXL. As for the experimental part:
as §1, §2, §3, §4, §5, §6, §7

Test [15] concerns the target Met (Homo sapiens (Human), UniProt P08581). Description: Enzyme selectivity test (ELISA), Met. As to the method:
as §1, §2, §3, §4, §5, §6, §7

Test [16] has as its target ALK (Homo sapiens (Human), UniProt Q9UM73). Description: Enzyme selectivity test (ELISA), ALK. As to the method:
as §1, §2, §3, §4, §5, §6, §7

Test [17] deals with RET (Homo sapiens (Human), UniProt P07949). Description: Enzyme selectivity test (ELISA), RET. As to the method:
as §1, §2, §3, §4, §5, §6, §7

In test [18] the target is FGFR-1 (Homo sapiens (Human), UniProt P11362). Description: Enzyme selectivity test (ELISA), FGFR-1. As to the method:
as §1, §2, §3, §4, §5, §6, §7

In test [19] the target is FGFR-2 (Homo sapiens (Human), UniProt P21802). Description: Enzyme selectivity test (ELISA), FGFR-2. As for the experimental part:
as §1
(§8) 2) Reaction buffer (50 mM HEPES pH 7.4, 50 mM MgCl2, 0.5 mM MnCl2, 0.2 mM Na3VO4, 1 mM DTT) diluted ATP solution (49 μL) was added to each well, 1 μL of the compound to be tested was added to each well, and then 50 μL of DDR2 kinase domain recombinant protein diluted in the reaction buffer was added to start the reaction. Two control wells without ATP were set in each experiment. The plate placed on a shaker (100 rpm) at 37° C. for 1 hour of reaction. The liquid in the well was discarded and the plate was washed three times with T-PBS. […]
as §6, §7

For test [20], the target named is FGFR-3 (Homo sapiens (Human), UniProt P22607). Description: Enzyme selectivity test (ELISA), FGFR-3. As to the method:
as §1, §8, §6, §7

The target of test [21] is FGFR-4 (Homo sapiens (Human), UniProt P22455). Description: Enzyme selectivity test (ELISA), FGFR-4. As for the experimental part: as §1, §8, §6, §7
Test [22] addresses KDR (Homo sapiens (Human), UniProt P35968). Description: Enzyme selectivity test (ELISA), KDR. As for the experimental part:
as §1, §2, §3, §4, §5, §6, §7

Test [23] addresses P38 MAPK. Description: Enzyme selectivity test (ELISA), P38 MAPK. As for the experimental part:
as §1, §8, §6, §7

For test [24], the system named is kinases. Description: Enzyme selectivity test, kinase panel overall. As to conditions: kinase panel of Table 5. An excerpt: Except that the enzyme was different, other test methods and conditions were the same as the DDR2 enzyme activity test method in Effect example 1.

Where only a bound is given, the exact number is not on record here.

P38 MAPK, sequence (Q16539 2-360 limits assumed): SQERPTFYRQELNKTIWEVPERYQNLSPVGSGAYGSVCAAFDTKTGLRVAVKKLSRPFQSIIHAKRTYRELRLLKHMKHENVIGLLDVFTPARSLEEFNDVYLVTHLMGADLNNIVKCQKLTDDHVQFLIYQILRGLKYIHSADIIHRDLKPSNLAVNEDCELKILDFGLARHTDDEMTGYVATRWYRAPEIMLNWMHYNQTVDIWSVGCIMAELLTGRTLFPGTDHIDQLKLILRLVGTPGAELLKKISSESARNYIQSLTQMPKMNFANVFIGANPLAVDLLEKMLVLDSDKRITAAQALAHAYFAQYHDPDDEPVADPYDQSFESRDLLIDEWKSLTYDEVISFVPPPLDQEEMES
PDGFR-β, sequence (P09619 33-1106, species assumed): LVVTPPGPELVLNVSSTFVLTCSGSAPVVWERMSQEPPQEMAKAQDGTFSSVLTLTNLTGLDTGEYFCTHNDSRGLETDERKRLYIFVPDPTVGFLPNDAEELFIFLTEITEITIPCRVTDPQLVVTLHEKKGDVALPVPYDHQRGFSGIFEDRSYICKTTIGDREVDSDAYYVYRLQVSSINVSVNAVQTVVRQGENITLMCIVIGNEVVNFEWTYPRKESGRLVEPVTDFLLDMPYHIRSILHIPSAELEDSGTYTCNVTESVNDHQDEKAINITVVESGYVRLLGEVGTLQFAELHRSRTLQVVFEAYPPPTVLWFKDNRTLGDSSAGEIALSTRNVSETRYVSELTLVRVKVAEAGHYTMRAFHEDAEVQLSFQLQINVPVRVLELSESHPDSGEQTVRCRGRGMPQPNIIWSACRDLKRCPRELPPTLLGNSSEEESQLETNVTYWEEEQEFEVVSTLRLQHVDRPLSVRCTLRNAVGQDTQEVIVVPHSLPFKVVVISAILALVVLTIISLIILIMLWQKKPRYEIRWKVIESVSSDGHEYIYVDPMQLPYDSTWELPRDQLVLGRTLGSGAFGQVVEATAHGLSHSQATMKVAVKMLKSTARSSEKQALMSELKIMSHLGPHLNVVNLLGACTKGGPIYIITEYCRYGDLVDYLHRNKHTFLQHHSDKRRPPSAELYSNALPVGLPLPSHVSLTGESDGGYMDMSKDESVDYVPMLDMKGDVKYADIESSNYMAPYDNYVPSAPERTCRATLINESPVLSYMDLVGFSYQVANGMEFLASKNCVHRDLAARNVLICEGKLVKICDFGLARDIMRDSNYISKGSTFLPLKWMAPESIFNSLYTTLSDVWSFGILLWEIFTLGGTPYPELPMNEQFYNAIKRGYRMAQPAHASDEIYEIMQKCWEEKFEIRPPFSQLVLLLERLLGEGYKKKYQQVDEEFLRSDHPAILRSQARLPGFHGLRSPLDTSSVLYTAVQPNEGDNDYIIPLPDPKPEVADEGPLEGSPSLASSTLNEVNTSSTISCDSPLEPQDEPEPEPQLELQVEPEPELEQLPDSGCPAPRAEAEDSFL
FGFR-4, sequence (P22455 22-802, species assumed): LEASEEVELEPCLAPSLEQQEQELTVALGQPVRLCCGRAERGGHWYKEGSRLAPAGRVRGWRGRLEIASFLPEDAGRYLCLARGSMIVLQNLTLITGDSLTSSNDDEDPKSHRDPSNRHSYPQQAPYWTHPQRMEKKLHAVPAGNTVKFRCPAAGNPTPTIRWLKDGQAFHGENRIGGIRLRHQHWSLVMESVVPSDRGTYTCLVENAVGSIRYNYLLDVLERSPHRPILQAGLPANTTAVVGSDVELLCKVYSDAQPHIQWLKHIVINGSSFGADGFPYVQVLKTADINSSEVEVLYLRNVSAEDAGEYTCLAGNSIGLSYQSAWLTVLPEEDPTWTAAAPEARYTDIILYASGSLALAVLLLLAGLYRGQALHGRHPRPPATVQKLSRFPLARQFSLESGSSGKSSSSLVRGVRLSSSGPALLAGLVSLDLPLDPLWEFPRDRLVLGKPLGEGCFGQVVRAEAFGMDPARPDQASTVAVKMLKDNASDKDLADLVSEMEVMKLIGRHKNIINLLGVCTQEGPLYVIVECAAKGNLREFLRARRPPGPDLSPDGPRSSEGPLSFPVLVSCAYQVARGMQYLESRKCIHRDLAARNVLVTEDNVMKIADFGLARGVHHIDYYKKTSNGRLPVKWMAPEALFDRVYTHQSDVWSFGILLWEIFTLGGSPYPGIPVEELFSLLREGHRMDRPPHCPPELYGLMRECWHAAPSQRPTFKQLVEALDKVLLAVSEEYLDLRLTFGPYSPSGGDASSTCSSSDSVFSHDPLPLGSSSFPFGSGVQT
RET, sequence (P07949 29-1114, species assumed): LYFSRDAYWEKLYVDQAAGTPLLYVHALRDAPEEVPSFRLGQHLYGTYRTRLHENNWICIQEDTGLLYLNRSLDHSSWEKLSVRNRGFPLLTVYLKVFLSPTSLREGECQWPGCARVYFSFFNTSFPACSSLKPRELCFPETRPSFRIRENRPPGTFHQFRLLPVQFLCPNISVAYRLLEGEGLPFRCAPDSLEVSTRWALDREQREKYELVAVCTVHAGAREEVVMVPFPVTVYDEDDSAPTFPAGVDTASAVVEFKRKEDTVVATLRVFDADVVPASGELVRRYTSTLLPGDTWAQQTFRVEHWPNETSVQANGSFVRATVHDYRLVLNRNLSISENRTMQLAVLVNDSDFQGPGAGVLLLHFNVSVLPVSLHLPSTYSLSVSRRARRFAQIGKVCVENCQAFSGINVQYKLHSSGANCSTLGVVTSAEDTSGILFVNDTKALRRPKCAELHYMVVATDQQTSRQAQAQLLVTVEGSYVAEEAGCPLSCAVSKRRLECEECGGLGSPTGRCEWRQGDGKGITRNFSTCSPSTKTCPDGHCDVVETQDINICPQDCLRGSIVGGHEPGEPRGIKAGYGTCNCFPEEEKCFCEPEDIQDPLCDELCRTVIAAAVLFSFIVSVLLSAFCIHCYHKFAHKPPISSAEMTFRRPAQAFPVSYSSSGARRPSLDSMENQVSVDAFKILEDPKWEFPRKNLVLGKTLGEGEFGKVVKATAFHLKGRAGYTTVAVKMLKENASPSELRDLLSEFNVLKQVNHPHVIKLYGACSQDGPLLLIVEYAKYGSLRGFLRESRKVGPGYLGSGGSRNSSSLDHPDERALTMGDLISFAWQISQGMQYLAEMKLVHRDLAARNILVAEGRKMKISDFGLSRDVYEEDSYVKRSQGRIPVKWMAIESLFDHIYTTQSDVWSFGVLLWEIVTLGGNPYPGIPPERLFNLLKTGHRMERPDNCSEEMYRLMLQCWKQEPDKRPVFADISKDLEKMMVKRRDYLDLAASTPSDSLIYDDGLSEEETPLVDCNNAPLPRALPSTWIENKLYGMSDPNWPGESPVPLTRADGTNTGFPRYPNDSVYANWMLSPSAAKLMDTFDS
EGFR, sequence (P00533 25-1210, species assumed): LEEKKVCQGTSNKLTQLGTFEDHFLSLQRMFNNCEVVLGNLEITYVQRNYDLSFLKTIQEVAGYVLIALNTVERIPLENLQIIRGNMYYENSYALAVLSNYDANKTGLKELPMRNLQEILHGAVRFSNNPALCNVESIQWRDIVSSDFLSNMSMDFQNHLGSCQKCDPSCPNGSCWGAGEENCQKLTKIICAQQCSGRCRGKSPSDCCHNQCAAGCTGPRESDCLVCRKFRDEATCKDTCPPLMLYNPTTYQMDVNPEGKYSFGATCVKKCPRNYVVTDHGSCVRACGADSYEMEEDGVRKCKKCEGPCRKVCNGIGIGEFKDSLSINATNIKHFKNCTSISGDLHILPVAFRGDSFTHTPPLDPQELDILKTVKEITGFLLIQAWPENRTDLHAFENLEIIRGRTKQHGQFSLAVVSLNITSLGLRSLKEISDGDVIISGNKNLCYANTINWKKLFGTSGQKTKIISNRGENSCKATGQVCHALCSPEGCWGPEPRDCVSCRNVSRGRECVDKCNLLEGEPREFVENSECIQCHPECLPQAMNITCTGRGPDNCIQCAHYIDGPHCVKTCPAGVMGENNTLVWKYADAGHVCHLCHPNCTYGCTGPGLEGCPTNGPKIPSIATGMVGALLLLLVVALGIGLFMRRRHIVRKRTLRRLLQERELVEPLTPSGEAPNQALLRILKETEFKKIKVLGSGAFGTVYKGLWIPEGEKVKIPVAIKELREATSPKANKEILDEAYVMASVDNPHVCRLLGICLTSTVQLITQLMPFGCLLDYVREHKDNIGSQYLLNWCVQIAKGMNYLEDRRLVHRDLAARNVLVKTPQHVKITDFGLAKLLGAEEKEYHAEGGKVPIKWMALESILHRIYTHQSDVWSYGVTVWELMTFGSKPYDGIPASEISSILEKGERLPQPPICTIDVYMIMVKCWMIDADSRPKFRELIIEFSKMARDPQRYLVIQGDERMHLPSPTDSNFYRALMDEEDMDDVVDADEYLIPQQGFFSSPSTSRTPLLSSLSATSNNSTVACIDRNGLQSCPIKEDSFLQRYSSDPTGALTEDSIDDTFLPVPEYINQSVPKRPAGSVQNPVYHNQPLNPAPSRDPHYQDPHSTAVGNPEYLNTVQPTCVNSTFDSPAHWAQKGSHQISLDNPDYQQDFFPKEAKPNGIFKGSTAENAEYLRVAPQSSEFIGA
Src, sequence (P12931 whole entry, looked up, species assumed): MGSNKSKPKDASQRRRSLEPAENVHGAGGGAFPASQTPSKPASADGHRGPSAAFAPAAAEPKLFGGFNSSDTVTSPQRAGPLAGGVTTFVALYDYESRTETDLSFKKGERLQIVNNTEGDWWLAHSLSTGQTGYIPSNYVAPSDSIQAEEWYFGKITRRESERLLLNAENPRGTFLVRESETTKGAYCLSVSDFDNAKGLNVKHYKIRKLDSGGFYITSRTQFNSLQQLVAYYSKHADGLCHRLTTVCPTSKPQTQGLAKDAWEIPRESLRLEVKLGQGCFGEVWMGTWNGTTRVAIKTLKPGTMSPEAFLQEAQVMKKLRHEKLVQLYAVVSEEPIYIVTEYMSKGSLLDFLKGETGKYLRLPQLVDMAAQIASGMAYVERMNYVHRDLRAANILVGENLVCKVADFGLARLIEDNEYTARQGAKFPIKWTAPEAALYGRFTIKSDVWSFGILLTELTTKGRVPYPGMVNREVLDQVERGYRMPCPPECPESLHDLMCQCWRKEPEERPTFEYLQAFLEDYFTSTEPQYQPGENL

On to `CCC(NC(=O)c1ccc(C2CC2)c(-c2ccc3nc(Nc4cnn(C5CC5)c4)ncc3c2)c1)c1cccc(C(F)(F)F)c1` (stereo not drawn) [Compound S18], for which the IC50 (usually the concentration that inhibits the measured activity by half) in [1] is 3.7 ± 0.2 nM; in [2], above 1000 nM; in test [3], above 1000 nM; in test [4], above 1000 nM; in [5], above 1000 nM; in [6], above 1000 nM. For the same compound, the IC50 in [7], in test [8], in [9], in test [10], in [11] and in [12] was above 1000 nM each time. Besides, the 50% inhibitory concentration (IC50) in [13], in test [14], in test [15], in test [16], in test [17] and in test [18] was above 1000 nM each time. Moreover, the concentration for half-maximal inhibition (IC50) in test [19], in [20], in test [21], in test [22] and in [23] was above 1000 nM throughout. In [24], the selectivity for kinases result was “good selectivity”.
